Here are results for 1 compound from patent US20230219939A1, “N-(1-CYANO-PYRROLIDIN-3-YL)-5-(3-(TRIFLUOROMETHYL)PHENYL)OXAZOLE-2-CARBOXAMIDE DERIVATIVES AND THE CORRESPONDING OXADIAZOLE DERIVATIVES AS USP30 INHIBITORS FOR THE TREATMENT OF MITOCHONDRIAL DYSFUNCTION” (MISSION THERAPEUTICS LIMITED, priority 2020, published 2023).

Data set [1] is described as follows: Brain homogenate binding, equilibrium dialysis. Format: in vitro ADME. The note with it: mouse, read-out: Binding Mouse Brain fu, br. An excerpt: Brain fu,br: The free fraction of a compound in brain homogenate preparation determined by in vitro equilibrium dialysis. It is understood that only unbound (free) compound is capable of engaging with the target.
In general terms: In equilibrium dialysis free small molecules cross a membrane that holds back macromolecules.

Data set [2] relates to P-glycoprotein (human MDR1). Put plainly: MDR1-MDCK flux assay. Format: in vitro ADME, Canine. To be noted: dog, read-out: MDR1-MDCK Effective efflux ratio. An excerpt: The treatment of CNS disorders, including Alzheimer's disease, Parkinson's disease, and other disorders described herein, requires drug molecules to target the brain, which requires adequate penetration of the blood brain barrier. […] The probability that a compound can cross the blood brain barrier may be measured by an in vitro flux assay utilizing a MDR1-MDCK cell monolayer (Madin-Darby Canine Kidney cells transfected with MDR-1 resulting in overexpression of the human efflux transporter P-glycoprotein). Additionally, exposure may also be measured directly in brain and plasma using in vivo animal models.
MDR1-MDCK (Madin-Darby Canine Kidney cell monolayer) (in vitro) flux assay.

The nature of data set [3]: WT-MDCK (wild-type) in vitro flux. Format: in vitro ADME. The note with it: dog. From the text: WT-MDCK (wild-type) in vitro flux.
Data set [4] can be described thus: FaSSIF solubility. Format: physicochemical. The note with it: pH 6.5, simulated intestinal fluid fasted state. From the text:
FaSSIF: simulated intestinal fluid in fasted state measured at pH 6.5.

A short description of data set [5]: Plasma binding, equilibrium dialysis. Format: in vitro ADME. The note with it: mouse plasma; read-out: Binding Mouse Plasma fu, p. An excerpt: Plasma fu,p: The free fraction of a compound in plasma preparation determined by in vitro equilibrium dialysis. It is understood that only unbound (free) compound is capable of engaging with the target.
A short description of data set [6]: PK mouse 2 mg/kg iv. Format: in vivo. To be noted: plasma, read-out: Cl plasma. An excerpt:
Cl in vivo clearance: Pharmacokinetic measurement of the volume of plasma (or any matrix) from which a substance is completely removed per unit time.

The target of data set [7] is Cathepsin B (Homo sapiens, UniProt P07858). Briefly: Cathepsin B IC50. Format: biochemical.
The target of data set [8] is T1, USP30 (Homo sapiens, UniProt Q70CQ3).
T1 construct: purchased Boston Biochem E582
T1 sequence (Q70CQ3 57-517 limits assumed): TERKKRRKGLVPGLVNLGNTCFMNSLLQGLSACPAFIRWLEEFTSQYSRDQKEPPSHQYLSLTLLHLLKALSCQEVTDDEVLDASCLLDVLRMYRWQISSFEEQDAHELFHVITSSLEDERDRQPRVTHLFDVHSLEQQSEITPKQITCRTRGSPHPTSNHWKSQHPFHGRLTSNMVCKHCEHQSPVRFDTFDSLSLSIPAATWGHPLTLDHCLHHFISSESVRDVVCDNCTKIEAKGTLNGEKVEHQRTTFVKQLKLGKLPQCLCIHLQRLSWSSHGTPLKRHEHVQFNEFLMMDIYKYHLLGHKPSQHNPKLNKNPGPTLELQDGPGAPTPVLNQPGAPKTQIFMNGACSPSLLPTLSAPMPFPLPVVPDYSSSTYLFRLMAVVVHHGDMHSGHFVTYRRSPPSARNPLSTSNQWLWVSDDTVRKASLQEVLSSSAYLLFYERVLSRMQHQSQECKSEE
Briefly: USP30 biochemical IC50 assay (fluorescence polarisation). How it is done:
Dilution plates were prepared at 21 times the final concentration (2100 μM for a final concentration of 100 μM) in 50% DMSO in a 96-well polypropylene V-bottom plate (Greiner #651201). A typical 8-point dilution series would be 100, 30, 10, 3, 1, 0.3, 0.1, 0.03 μM final. Reactions were performed in duplicate in black 384 well plates (small volume, Greiner 784076) in a final reaction volume of 21 μl. Either 1 μl of 50% DMSO or diluted compound was added to the plate. USP30 (Boston Biochem #E582) was diluted in reaction buffer (40 mM Tris, pH 7.5, 0.005% Tween 20, 0.5 mg/ml BSA, 5 mM beta-mercaptoethanol) to achieve a final assay concentration of 4 nM, and 10 μl of diluted USP30 was added to the compound. Enzyme and compound were incubated for 30 min at room temp. Reactions were initiated by the addition of 50 nM of TAMRA labelled peptide linked to ubiquitin via an iso-peptide bond as fluorescence polarisation substrate. Reactions were read immediately after addition of substrate and following a 2-hour incubation at room temperature. Readings were performed on a Pherastar Plus (BMG Labtech). λ Excitation 540 nm; λ Emission 590 nm.
On the technique in general: In fluorescence polarisation assays a small probe gives low polarisation when free and higher when bound to something large.

Data set [9] relates to Cathepsins B, K, L, S, V. Put plainly: Cathepsin panel IC50 (summary over B, K, L, S, V). Format: biochemical.
Data set [10] deals with T2, Cathepsin K (Homo sapiens, UniProt P43235).
T2 sequence (P43235 115-329): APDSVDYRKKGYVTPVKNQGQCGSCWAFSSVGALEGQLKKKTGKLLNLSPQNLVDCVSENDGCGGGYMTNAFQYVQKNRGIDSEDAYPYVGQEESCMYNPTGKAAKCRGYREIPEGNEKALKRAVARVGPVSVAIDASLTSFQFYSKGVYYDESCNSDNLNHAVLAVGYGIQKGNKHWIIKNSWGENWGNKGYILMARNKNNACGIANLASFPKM
Put plainly: Cathepsin K IC50. Format: biochemical.

In data set [11] the test system is mouse hepatocytes. Put plainly: Hepatocyte Cl mouse. Format: in vitro ADME. How it is done: Hep Cl mouse: in vitro hepatocyte clearance in mouse cells.
(§1) Clu: in vitro clearance. Clu as defined here is the scaled clearance, in turn calculated from the intrinsic clearance. The intrinsic clearance is the predicted clearance due to hepatic metabolic reactions, determined from incubation of a compound in a hepatocyte preparation.

Data set [12] concerns the target Cathepsin L (Homo sapiens, UniProt P07711). Briefly: Cathepsin L IC50. Format: biochemical. To be noted: read-out: Cathepsin IC50 (μM) Cathepsin L.
Data set [13] can be described thus: Log D. Format: physicochemical. The note with it: pH 7.4; read-out: Log D measured at pH 7.4. From the text: log D: distribution co-efficient; lipophilicity measurement.
Data set [14] in a line: Mouse plasma stability. Format: in vitro ADME.
The test system of data set [15] is hepatocytes. Put plainly: Hepatocyte Cl human. Format: in vitro ADME. How it is done:
Hep Cl human: in vitro hepatocyte clearance in human cells.
as §1

pIC50: −log10 of the molar value. “And” between values parts separate entries of the source, which are not always exact repeats. Equal values may be shown once. Read-outs that look alike come from different tables or passages of the source. Where only a bound is given, the exact number is not on record here.

Cathepsin L, sequence (P07711 114-333, species assumed): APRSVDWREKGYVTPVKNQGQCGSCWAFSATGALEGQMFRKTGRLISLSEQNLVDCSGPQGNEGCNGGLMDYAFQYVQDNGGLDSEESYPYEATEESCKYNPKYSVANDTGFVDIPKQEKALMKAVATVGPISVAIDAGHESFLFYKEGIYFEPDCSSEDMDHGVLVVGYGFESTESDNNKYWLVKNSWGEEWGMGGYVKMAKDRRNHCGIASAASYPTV

In the case of `COC[C@@H]1C[C@@H](NC(=O)c2ncc(-c3cccc(C(F)(F)F)c3)o2)CN1C#N` [Example 1, N-((3R,5S)-1-Cyano-5-(methoxymethyl)-pyrrolidin-3-yl)-5-(3-(trifluoromethyl)phenyl)oxazole-2-carboxamide], the fraction unbound in [1] was found to be 0.05; in data set [5], 0.12. For the same compound, the efflux ratio worked out at 1.2 in [2] and 0.8 in [3]. Besides, the Papp A→B in data set [3] (A-B) stood at 11.8 ×10⁻⁶ cm/s. The “FaSSIF (μM) measured at pH 6.5” value in [4] was 200 μM. The clearance in data set [6] is 19 mL/min/kg. The IC50 in data set [7] is 122 µM; in data set [8] (read-out: DUB IC50 (μM) USP30) it was 0.009 µM and 0.004 to 0.033 µM; in data set [9] (range over the five cathepsins, read-out: Cathepsin IC50 (μM) B, K, L, S, V), 10.2 to 138 µM; in data set [10], 10.2 µM; in data set [12] it was 30.4 µM. The pIC50 in data set [8] (USP30 biochemical IC50 assay, read-out: USP30 IC50) is 8.05. The “Selectivity preference for USP30 v cathepsins” value in [9] is reported as greater than 1133. Further, in [11], the “Hepatocyte Cl mouse Scaled Clu” value came out at 81 mL/min/kg. In addition, the “hepatocyte metabolic stability compared to Reference Examples A and B (in words)” value in data set [11] is “significantly improved hepatocyte metabolic stability”. Also, the logD in data set [13] was 2.6. Further, the “plasma stability compared to Reference Example B (in words)” value in data set [14] was “significantly improved plasma stability”. Besides, the half-life in [14] (mouse plasma, read-out: Stability Mouse plasma t1/2) turned out to be 5.98 h. Also, in [15], the “Hepatocyte Cl human Scaled Clu” value worked out at 10.3 mL/min/kg.

The term Papp A→B denotes the apparent permeability from the apical to the basolateral side of a cell layer. Low readings indicate slow passage, high ones fast passage. For orientation: IC50 means the concentration needed to halve the response being measured. What is called pIC50 is −log10 of the IC50, conventionally taken in molar units.
